Laboratory results taken from patent US20130337564A1, “Treatment of Pluripotent Cells” (Janssen Biotech, Inc., priority 2012, published 2013).

Experiments:
Assay type in all cases: cell-based
[1] = test system: human embryonic stem cells (H9 line); assay: High content screening assay: cell number (proliferative response); conditions: for fold induction at 10 µM: Homo sapiens, Embryonic stem cell, read-out: Proliferative Response, Fold over Wnt 3a/AA control
Outline: (§1)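 H9 hESCs on MATRIGEL treated days 1-2 with 10 μM compound in DMEM:F12, 0.5% FCS, 100 ng/ml activin A; days 3-4 with 2% FCS plus activin A without compound. Fixed cells immunostained for Sox17 or HNF-3beta with Draq5 nuclear counterstain. Cell number and staining intensity quantified by high-content imaging, 12 fields/well.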

[2] = test system: Sox17 expression in human embryonic stem cells (H9 line); assay: High content screening assay: Sox17 protein expression (differentiation); conditions: for fold induction at 10 µM: Homo sapiens, Embryonic stem cell, read-out: SOX17 Expression, Fold over Wnt 3a/AA control; for fold induction at 10 µM / SOX17 Expression, Fold over Wnt 3a/AA control: 10 μM test compound with 100 ng/ml activin A on days 1-2, H9, total intensity by IN Cell Analyzer, strong and moderate hits; for SOX-17 Expression Fold over Wnt 3a/AA control: total intensity normalised to Wnt 3a/AA control
Outline: as §1

[3] = test system: cells expressing pluripotency markers derived from human embryonic stem cells; assay: MTS viability (toxicity) assay of cells expressing pluripotency markers; set-up: Raw data (duplicate), first replicate / Average: unit not given here; conditions: for viability at 10 µM: Homo sapiens, Embryonic stem cell; for viability at 10 µM / % Control: viability of cells expressing pluripotency markers, relative to control; for Average of raw data (duplicate), optical density at 490 nm: MTS on day 4
Outline: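 A GSK-3B inhibitor library was screened for toxicity to pluripotency-marker-expressing cells. Compound was given in DMEM:F12 with 0.5% FCS and 100 ng/ml Activin A for two days, then replaced by medium with 2% FCS and Activin A. On day 4, MTS absorbance at 490 nm gave viability as percent of Activin A plus Wnt3a control wells.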

[4] = cell number in the wells analysed for HNF-3b expression
[5] = cell number in the wells analysed for SOX-17 expression
[6] = MTS viability assay raw reading, replicate 1
[7] = MTS viability assay raw reading, replicate 2
[8] = average of duplicate MTS raw readings
[9] = 10 μM test compound with 100 ng/ml activin A on days 1-2, H9, total cell number by IN Cell Analyzer, strong and moderate hits
[10] = cell number in the wells analysed for HNF-3b expression, normalised to Wnt 3a/AA control
[11] = cell number in the wells analysed for SOX-17 expression, normalised to Wnt 3a/AA control

COc1ccccc1C1=C(c2cn(CCCNC(C)=O)c3ncccc23)C(=O)NC1=O [Compound 27, N-[3-(3-{4-[2-(Methyloxy)phenyl]-2,5-dioxo-2,5-dihydro-1H-pyrrol-3-yl}-1H-pyrrolo[2,3-b]pyridin-1-yl)propyl]acetamide]
Proliferative Response Total cells [1, 4]: 5 | Proliferative Response Total cells [1, 5]: 5 | SOX-17 Expression Total Intensity [2]: 125443 | viability at 10 µM [3]: 7.2% | Raw data (duplicate), first replicate [3, 6]: 0.160 | Raw data (duplicate), second replicate [3, 7]: 0.186 | Average [3, 8]: 0.173

O=C1NC(=O)C(c2cn(CCCO)c3ncccc23)=C1c1cnccn1 [Compound 47, 3-[1-(3-Hydroxypropyl)-1H-pyrrolo[2,3-b]pyridin-3-yl]-4-pyrazin-2-yl-1H-pyrrole-2,5-dione]
fold induction at 10 µM [1, 9]: 1.37 | Proliferative Response Total cells [1, 4]: 6908 | Proliferative Response Total cells [1, 5]: 10447 | fold induction at 10 µM [2]: 1.02 | SOX-17 Expression Total Intensity [2]: 382680000 | viability at 10 µM [3]: 104%

O=C1NC(=O)C(c2cn(CCOCCOCCNC3CCCc4ccccc43)c3ccccc23)=C1c1cn(CCNC2CCCc3ccccc32)c2ccccc12 (centres unmarked) [Compound 144, 3-{1-[2-(1,2,3,4-Tetrahydronaphthalen-1-ylamino)ethyl]-1H-indol-3-yl}-4-(1-{2-[(2-{[2-(1,2,3,4-tetrahydronaphthalen-1-ylamino)ethyl]oxy}ethyl)oxy]ethyl}-1H-indol-3-yl)-1H-pyrrole-2,5-dione]
Proliferative Response Total cells [1, 4]: 6833 | Proliferative Response Total cells [1, 5]: 7990 | SOX-17 Expression Total Intensity [2]: 339840000 | viability at 10 µM [3]: 106% | Raw data (duplicate), first replicate [3, 6]: 0.840 | Raw data (duplicate), second replicate [3, 7]: 0.832 | Average [3, 8]: 0.836 | Average of raw data (duplicate), optical density at 490 nm ([3]; cmpd conc 2.5 μM): 0.2898 | Average of raw data (duplicate), optical density at 490 nm ([3]; cmpd conc 5 μM): 0.1473 | Average of raw data (duplicate), optical density at 490 nm ([3]; cmpd conc 10 μM): 0.1464

CN(C)c1cccc(-n2cc(C3=C(c4nn(CCO)c5ccccc45)C(=O)NC3=O)c3ccccc32)c1 [Compound 145, 3-{1-[3-(Dimethylamino)phenyl]-1H-indol-3-yl}-4-[1-(2-hydroxyethyl)-1H-indazol-3-yl]-1H-pyrrole-2,5-dione]
Proliferative Response Total cells [1, 4]: 2907 | Proliferative Response Total cells [1, 5]: 4914 | SOX-17 Expression Total Intensity [2]: 238555000 | viability at 10 µM [3]: 105% | Raw data (duplicate), first replicate [3, 6]: 0.831 | Raw data (duplicate), second replicate [3, 7]: 0.822 | Average [3, 8]: 0.826 | Average of raw data (duplicate), optical density at 490 nm ([3]; cmpd conc 2.5 μM): 0.7608 | Average of raw data (duplicate), optical density at 490 nm ([3]; cmpd conc 5 μM): 0.5871 | Average of raw data (duplicate), optical density at 490 nm ([3]; cmpd conc 10 μM): 0.1277

CN(C)c1ccc(-n2cc(C3=C(c4nn(CCO)c5ccccc45)C(=O)NC3=O)c3cc(Cl)ccc32)cn1 [Compound 148, 3-{5-Chloro-1-[6-(dimethylamino)pyridin-3-yl]-1H-indol-3-yl}-4-[1-(2-hydroxyethyl)-1H-indazol-3-yl]-1H-pyrrole-2,5-dione]
fold induction at 10 µM [1, 9]: 0.799 | Proliferative Response Total cells [1, 4]: 6536 | Proliferative Response Total cells [1, 5]: 12243 | fold induction at 10 µM [2]: 0.719 | SOX-17 Expression Total Intensity [2]: 699160000 | viability at 10 µM [3]: 88.8% | Raw data (duplicate), first replicate [3, 6]: 0.753 | Raw data (duplicate), second replicate [3, 7]: 0.687 | Average [3, 8]: 0.720 | Average of raw data (duplicate), optical density at 490 nm ([3]; cmpd conc 2.5 μM): 0.2669 | Average of raw data (duplicate), optical density at 490 nm ([3]; cmpd conc 5 μM): 0.1559 | Average of raw data (duplicate), optical density at 490 nm ([3]; cmpd conc 10 μM): 0.1537

COC(=O)c1cncc(-n2cc(C3=C(c4nn(CCO)c5ccccc45)C(=O)NC3=O)c3cc(Cl)ccc32)c1 [Compound 150, Methyl 5-(5-chloro-3-{4-[1-(2-hydroxyethyl)-1H-indazol-3-yl]-2,5-dioxo-2,5-dihydro-1H-pyrrol-3-yl}-1H-indol-1-yl)pyridine-3-carboxylate]
Proliferative Response Total cells [1, 4]: 6992 | Proliferative Response Total cells [1, 5]: 7958 | SOX-17 Expression Total Intensity [2]: 351070000 | viability at 10 µM [3]: 81.7% | Average ([3]; MTS viability readout, average of duplicate raw data): 0.673 | Raw data (duplicate), first replicate ([3]; MTS viability readout, raw value of replicate 1): 0.668 | Raw data (duplicate), second replicate ([3]; MTS viability readout, raw value of replicate 2): 0.678 | Average of raw data (duplicate), optical density at 490 nm ([3]; cmpd conc 2.5 μM): 0.7630 | Average of raw data (duplicate), optical density at 490 nm ([3]; cmpd conc 5 μM): 0.6972 | Average of raw data (duplicate), optical density at 490 nm ([3]; cmpd conc 10 μM): 0.2259

OCCC#Cc1nc(-c2ccc(F)cc2)c(-c2ccncc2)n1CCCc1ccccc1 [Compound 158, 4-[4-(4-Fluorophenyl)-1-(3-phenylpropyl)-5-pyridin-4-yl-1H-imidazol-2-yl]but-3-yn-1-ol]
Proliferative Response Total cells [1, 4]: 6058 | Proliferative Response Total cells [1, 5]: 6376 | SOX-17 Expression Total Intensity [2]: 324450000 | viability at 10 µM [3]: 77.7% | Raw data (duplicate), first replicate [3, 6]: 0.629 | Raw data (duplicate), second replicate [3, 7]: 0.659 | Average [3, 8]: 0.644 | Average of raw data (duplicate), optical density at 490 nm ([3]; cmpd conc 2.5 μM): 0.7971 | Average of raw data (duplicate), optical density at 490 nm ([3]; cmpd conc 5 μM): 0.8183 | Average of raw data (duplicate), optical density at 490 nm ([3]; cmpd conc 10 μM): 0.6052

O=C1NC(=O)C2=C1c1cn(c3ccccc13)CCOCCOCCOCCn1cc2c2ccccc21 [Compound 163, 6,7,9,10,12,13,15,16-Octahydro-23H-5,26:17,22-di(metheno)dibenzo[k,q]pyrrolo[3,4-n][1,4,7,10,19]trioxadiazacyclohenicosine-23,25(24H)-dione]
Proliferative Response Total cells [1, 4]: 5485 | Proliferative Response Fold over Wnt 3a/AA control [1, 10]: 4.327 fold | Proliferative Response Total cells [1, 5]: 1313 | Proliferative Response Fold over Wnt 3a/AA control [1, 11]: 0.7864 fold | SOX17 Expression, Fold over Wnt 3a/AA control [2]: 0.9266 Fold over Wnt 3a/AA control | SOX-17 Expression Total Intensity [2]: 28506437 | SOX-17 Expression Fold over Wnt 3a/AA control [2]: 0.9266 fold | Raw data (duplicate), first replicate [3, 6]: 0.678 | Raw data (duplicate), second replicate [3, 7]: 0.661 | Average [3, 8]: 0.670 | % Control [3]: 80.8%

O=C1NC(=O)C2=C1c1cn(c3ccccc13)CCOCCOCCn1cc2c2ccccc21 [Compound 164, 6,7,9,10,12,13-Hexahydro-20H-5,23:14,19-di(metheno)dibenzo[h,n]pyrrolo[3,4-k][1,4,7,16]dioxadiazacyclooctadecine-20,22(21H)-dione]
Proliferative Response Total cells [1, 4]: 67 | Proliferative Response Fold over Wnt 3a/AA control [1, 10]: 0.05259 fold | Proliferative Response Total cells [1, 5]: 12 | Proliferative Response Fold over Wnt 3a/AA control [1, 11]: 0.007385 fold | SOX-17 Expression Total Intensity [2]: 85949 | SOX-17 Expression Fold over Wnt 3a/AA control [2]: 0.0028 fold | Raw data (duplicate), first replicate [3, 6]: 0.603 | Raw data (duplicate), second replicate [3, 7]: 0.584 | Average [3, 8]: 0.593 | % Control [3]: 69.4%

O=C1NC(=O)C2=C1c1cn(c3ccccc13)CCOCCOCCOCCOCCn1cc2c2ccccc21 [Compound 165, 10,11,13,14,16,17,19,20,22,23-Decahydro-1H-9,4:24,29-di(metheno)dibenzo[n,t]pyrrolo[3,4-q][1,4,7,10,13,22]tetraoxadiazacyclotetracosine-1,3(2H)-dione]
Proliferative Response Fold over Wnt 3a/AA control [1, 9]: 5.8846 Fold over Wnt 3a/AA control | Proliferative Response Total cells [1, 4]: 7460 | Proliferative Response Fold over Wnt 3a/AA control [1, 10]: 5.885 fold | Proliferative Response Total cells [1, 5]: 2899 | Proliferative Response Fold over Wnt 3a/AA control [1, 11]: 1.736 fold | SOX17 Expression, Fold over Wnt 3a/AA control [2]: 1.0630 Fold over Wnt 3a/AA control | SOX-17 Expression Total Intensity [2]: 32703235 | SOX-17 Expression Fold over Wnt 3a/AA control [2]: 1.0630 fold | Raw data (duplicate), first replicate [3, 6]: 0.690 | Raw data (duplicate), second replicate [3, 7]: 0.674 | Average [3, 8]: 0.682 | % Control [3]: 83.3%
